Here are results for 6 compounds from patent US11208432B2, “Inhibitors of glucocorticoid receptor” (ORIC Pharmaceuticals, Inc., priority 2015, dated 2021).

The test system of the first assay is AR. The assay is described as follows: In Vitro AR Agonism Assay (LNAR reporter cell line). The conditions noted are these: LNAR reporter cells, RPMI + 10% CSS, 18-24 hrs; maximum response of Mifepristone set to 1. The class given is cell-based. The procedure: In Vitro AR Agonism Assay
The AR agonism assay was done in the LNAR reporter cell line which has overexpressed AR and 4×ARE-Luc genes. This cell line is sensitive to even minor partial AR agonism activity in hormone-deprived media (CSS). The assays were done in RPMI (without phenol red)+10% CSS using 6000 LNAR cells/well in 384-well plates and compounds were incubated with cells in […] incubator for 18-24 hrs. OneGlo reagent (25 uL/well) was added and plates were read with luminometer within 3 minutes.
To gauge the AR partial agonism activity, Mifepristone is included as a standard in the assay. AR agonism assay results are quantified by determining the ratio of the maximum response of individual compounds to the maximum response of Mifepristone (arbitrarily set to 1). Values of Table 4 are reported as Relative Maximum Response to Mifepristone. This general trend of AR agonism was shown for the class of compounds described herein.
On to `CC#C[C@]1(O)CC[C@H]2[C@@H]3CCC4=CC(=O)CC[C@@H]4[C@H]3[C@@H](c3ccc(N(C)C)cc3)C[C@@]21C` [Compound 3], for which the “Relative Maximum Response to Mifepristone” value is “B (B: >0.4)”.
For `COc1ccc([C@H]2C[C@@]3(C)[C@@H](CC[C@@]3(O)C#CC3CC3)[C@@H]3CCC4=CC(=O)CC[C@]4(C)C23)cc1` (stereo partly drawn) [Compound 6], the “Relative Maximum Response to Mifepristone” value was “A (A: ≤0.4)”.
Still for that read-out and setting: as for `CN(C)c1ccc([C@H]2C[C@@]3(C)[C@@H](CC[C@@]3(O)C#CC(C)(C)C)[C@@H]3CCC4=CC(=O)CC[C@@H]4[C@H]32)cc1` [Compound 7, (8R,9S,10R,11S,13S,14S,17S)-11-(4-(dimethylamino)phenyl)-17-(3,3-dimethylbut-1-yn-1-yl)-17-hydroxy-13-methyl-1,2,6,7,8,9,10,11,12,13,14,15,16,17-tetradecahydro-3H-cyclopenta[a]phenanthren-3-one], the entry is “A (A: ≤0.4)”; as for `COC(C)(C)C#C[C@]1(O)CC[C@H]2[C@@H]3CCC4=CC(=O)CC[C@@H]4[C@H]3[C@@H](c3ccc(N(C)C)cc3)C[C@@]21C` [Compound 10, (8R,9S,10R,11S,13S,14S,17S)-11-(4-(Dimethylamino)phenyl)-17-hydroxy-17-(3-methoxy-3-methylbut-1-yn-1-yl)-13-methyl-1,2,6,7,8,9,10,11,12,13,14,15,16,17-tetradecahydro-3H-cyclopenta[a]phenanthren-3-one], “A (A: ≤0.4)”.
Same read-out and setting: as for `CC(C)C#C[C@]1(O)CC[C@H]2[C@@H]3CCC4=CC(=O)CC[C@]4(C)C3[C@@H](c3ccc(N(C)C)cc3)C[C@@]21C` (stereo partly drawn) [Compound 13, (8S,10R,11S,13S,14S,17S)-11-(4-(Dimethylamino)phenyl)-17-hydroxy-10,13-dimethyl-17-(3-methylbut-1-yn-1-yl)-1,2,6,7,8,9,10,11,12,13,14,15,16,17-tetradecahydro-3H-cyclopenta[a]phenanthren-3-one], the entry is “A (A: ≤0.4)”.

The same assay, now with this note: in concentrations as low as 10 nM.
With `CC#C[C@]1(O)CC[C@H]2[C@@H]3CCC4=CC(=O)CCC4=C3[C@@H](c3ccc(N(C)C)cc3)C[C@@]21C` [Mifepristone, reference compound], the “partial AR agonism” value is listed as “strong partial AR agonism”.
